Reference: patent US20230312524A1, “ALPHA1A-ADRENERGIC RECEPTOR AGONISTS AND METHODS OF USE” (CuraSen Therapeutics, Inc., priority 2020, published 2023)
pEC50: −log10 of the molar value. Where a name gives a salt, the structure may show the parent alone. Read-outs that look alike come from different tables or passages of the source.

What was measured:
α1A-ARS = biological target: T1, α1A-ARS (Homo sapiens, UniProt P35348); assay: Calcium flux assay (Calcium 6 dye) in cells expressing an α1-AR; format: cell-based; settings: for Emax: read-out: Average Emax
T1 sequence (P35348 1-466): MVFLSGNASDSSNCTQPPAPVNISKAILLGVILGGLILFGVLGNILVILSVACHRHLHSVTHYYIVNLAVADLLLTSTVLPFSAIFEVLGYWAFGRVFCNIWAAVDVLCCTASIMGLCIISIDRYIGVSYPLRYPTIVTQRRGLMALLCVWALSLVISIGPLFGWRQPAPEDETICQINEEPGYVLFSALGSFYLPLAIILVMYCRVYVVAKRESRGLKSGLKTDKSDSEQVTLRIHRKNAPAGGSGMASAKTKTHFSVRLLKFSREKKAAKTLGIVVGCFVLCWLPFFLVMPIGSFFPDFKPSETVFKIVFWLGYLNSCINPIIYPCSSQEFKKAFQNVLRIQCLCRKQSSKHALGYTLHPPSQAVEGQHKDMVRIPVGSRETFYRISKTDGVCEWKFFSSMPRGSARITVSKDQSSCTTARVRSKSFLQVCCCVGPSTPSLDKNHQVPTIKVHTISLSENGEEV
Description: Calcium flux experimental design: alpha-1 adrenergic receptors (α1-ARs) couple to Gq proteins, which results in downstream activation of phospholipase C and release of calcium from intracellular stores. Intracellular calcium increase upon α1-AR activation can be detected by Calcium 6 dye.
Cell preparation: cells expressing an α1-AR were washed in warmed phosphate-buffered saline to remove medium and harvested using versene (Caisson Labs, catalog #EDL01).
Media was removed from cells by tapping plates upside-down on absorbent wipes, followed by 15 second upside-down 50×g centrifugation, again on absorbent wipes. 12 μL cell dye solution was added to cells using a reagent dispenser (Integra viaFILL) and cells were incubated for 90 minutes at 37° C., 5% CO2.
Compound preparation: candidate alpha-adrenergic compounds, dissolved to 10 mM in DMSO, were diluted in_assay buffer (HBSS/H-EPES containing 2 mM CaCl2 and 2 mM probenecid sodium salt). […] On all assay plates, vehicle (DMSO) and positive control (10 μM epinephrine) conditions were included on the plate, as well as a dose-response curve of epinephrine. […] 384 well compound plates were centrifuged briefly at 250×g, sealed (Axygen PCR-SP) and incubated at 37° C. until the 90 minute cell dye incubation was complete.
Calcium 6 stained cells and 384 well compound plates were loaded onto the Flexstation and incubated on the machine for 5 minutes before initiating the assay.
For each assay well, baseline Calcium 6 fluorescence was detected for 18 seconds prior to 12 μL compound addition at 12 μL per second. Changes in Calcium 6 fluorescence were detected for a further 22 seconds, for a total read time of 40 seconds. All detection was performed with medium gain sensitivity, bottom read, with 6 flashes per read.
Data analysis: for calcium flux, analysis of maximum change from baseline over the 40-second read time was determined using Softmax Pro and data was exported as raw text files. Potency estimates (EC50) were derived from dose response curves (maximum change from baseline versus the log concentration of test compound) fit by four-parameter nonlinear regression using Graphpad Prism. Efficacy was determined by comparing the magnitude of the test compound signal window (fitted curve max−min) with the signal window of the full agonist control, epinephrine. […] All experiments were repeated a minimum of three times, with the average (mean) potency and maximum effect relative to the within-plate full agonist dose-response comparator reported.

α1A-adrenergic receptor [1] = biological target: T2, α1A-adrenergic receptor (Homo sapiens, UniProt P35348); settings: as compared to noradrenaline; FLIPR assay; Blue et al., Table 1; cited from earlier work
T2 sequence (P35348 1-466): T1 sequence (P35348 1-466)

α1A-adrenergic receptor [2] = biological target: T2, α1A-adrenergic receptor; settings: as compared to noradrenaline; InsPs accumulation assay; Blue et al., Table 1; cited from earlier work
[3] = calcium flux, α1A-AR, maximum effect relative to full agonist epinephrine
[4] = calcium flux, α1A-AR, mean of at least three experiments, read-out: Average PEC50

Row | SMILES | Emax (α1A-ARS; [3]) [%] | pEC50 (α1A-ARS; [4]) | Emax (α1A-ARS) [%] | other results
1 | C[C@@H](O)c1cc(Cl)ccc1CC1=NCCN1 [Compound 146] | < 20 | < 6.00 |  | 
2 | C[C@H](F)c1cc(Cl)ccc1CC1=NCCN1 [Compound 147] |  | 6.01 to 8.00 | 21 to 60 | 
3 | Cc1cc(CC2=NCCN2)cc(OC(F)F)c1 [Compound 148] |  | 6.01 to 8.00 | > 61 | 
4 | Cc1c(CC2=NCCN2)ccc(S(=O)(=O)C(F)F)c1Cl [Compound 149] | 21 to 60 | < 6.00 |  | 
5 | CCc1c(CC2=NCCN2)ccc(S(=O)(=O)C(F)(F)F)c1Cl [Compound 150] | 21 to 60 | < 6.00 |  | 
6 | CC(F)(F)c1cc(OC(F)F)ccc1CC1=NCCN1 [Compound 151] |  | 6.01 to 8.00 | 21 to 60 | 
7 | Clc1ccc(CC2=NCCN2)cc1 [Compound 152] |  | < 6.00 | < 20 | 
8 | Clc1ccccc1CC1=NCCN1 [Compound 153] |  | 6.01 to 8.00 | < 20 | 
9 | FC(F)(F)c1ccccc1CC1=NCCN1 [Compound 154] |  | < 6.00 | 21 to 60 | 
10 | Cc1ccccc1CC1=NCCN1 [Compound 155] |  | 6.01 to 8.00 | 21 to 60 | 
11 | COc1ccccc1CC1=NCCN1 [Compound 156] |  | 6.01 to 8.00 | 21 to 60 | 
12 | CC(F)(F)c1ccc(CC2=NCCN2)c(Cl)c1 [Compound 157] |  | 6.01 to 8.00 | > 61 | 
13 | c1ccc(-c2ncco2)c(CC2=NCCN2)c1 [Compound 158] | 21 to 60 | 6.01 to 8.00 |  | 
14 | Cc1c(CC2=NCCN2)ccc(S(=O)(=O)C(F)(F)F)c1Cl [Compound 159] | 21 to 60 | < 6.00 |  | 
15 | FC(F)Oc1cccc(CC2=NCCN2)c1Cl [Compound 160] |  | 6.01 to 8.00 | > 61 | 
16 | FC(F)Oc1ccc(Cl)c(CC2=NCCN2)c1 [Compound 161] |  | 6.01 to 8.00 | > 61 | 
17 | CC(F)(F)c1cc(OC(F)(F)F)ccc1CC1=NCCN1 [Compound 162] | 21 to 60 | < 6.00 |  | 
18 | C[C@H](O)c1ccc(CC2=NCCN2)c(Cl)c1 [Compound 163] | > 61 | 6.01 to 8.00 |  | 
19 | C[C@@H](O)c1ccc(CC2=NCCN2)c(Cl)c1 [Compound 164] | > 61 | > 8.01 |  | 
20 | Cc1ccc(OC(F)(F)F)cc1CC1=NCCN1 [Compound 165] |  |  | > 61 | pEC50 (α1A-ARS): 6.01 to 8.00
21 | FC(F)(F)Oc1cccc(CC2=NCCN2)c1Cl [Compound 166] |  | 6.01 to 8.00 | 21 to 60 | 
22 | FC(F)(F)Oc1ccc(Cl)c(CC2=NCCN2)c1 [Compound 167] |  | 6.01 to 8.00 | > 61 | 
23 | Cc1c(OCC2=NCCN2)ccc(Cl)c1NS(C)(=O)=O [RO 115-1240 (dabuzalgron) HCl salt, dabuzalgron] |  |  |  | intrinsic activity (α1A-adrenergic receptor [1]): 0.51; intrinsic activity (α1A-adrenergic receptor [2]): 0.27
24 | Cc1c(OCC2=NCCN2)ccc(Cl)c1NS(C)(=O)=O [RO 115-1240 (dabuzalgron) free base, dabuzalgron] |  |  |  | intrinsic activity (α1A-adrenergic receptor [2]): 0.31
